Measured values published in the supplement of paper PMC10307832.

Legend:
Assay in all cases: relative viability (nuclei count vs DMSO), 5 days (fraction); higher = more cells survive
[1] = compound: CN(C)CC1=CC(=CC=C1)N=C(C2=CC=CC=C2)C3=C(NC4=C3C=CC(=C4)C(=O)N(C)C)O + CS(=O)(=O)CCNCc1ccc(-c2ccc3ncnc(Nc4ccc(OCc5cccc(F)c5)c(Cl)c4)c3c2)o1 [Lapatinib] (partner 2 µM)
Procedure, shortened: (§1)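 Values are medians from duplicate plates. Each reflects relative viability, defined as the nuclei count of treated wells over that of vehicle wells. Lung cancer cell lines in 1536-well plates were pin-tool dosed one day after seeding with one drug alone or with a fixed anchor-drug dose plus five library-drug doses (not always all listed) in √10 steps, then fixed, stained and imaged at 4× after 5 days.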

[2] = compound: CN(C)CC1=CC(=CC=C1)N=C(C2=CC=CC=C2)C3=C(NC4=C3C=CC(=C4)C(=O)N(C)C)O + C[C@@H](Oc1cc(-c2cnn(C3CCNCC3)c2)cnc1N)c1c(Cl)ccc(F)c1Cl [Crizotinib] (partner 1 µM)
Procedure, shortened: as §1

[3] = compound: CN(C)CC1=CC(=CC=C1)N=C(C2=CC=CC=C2)C3=C(NC4=C3C=CC(=C4)C(=O)N(C)C)O + Cc1nc(Nc2ncc(C(=O)Nc3c(C)cccc3Cl)s2)cc(N2CCN(CCO)CC2)n1 [Dasatinib] (partner 0.075 µM)
Procedure, shortened: as §1

[4] = compound: CN(C)CC1=CC(=CC=C1)N=C(C2=CC=CC=C2)C3=C(NC4=C3C=CC(=C4)C(=O)N(C)C)O + Nc1nc2[nH]cc(CCc3ccc(C(=O)N[C@@H](CCC(=O)O)C(=O)O)cc3)c2c(=O)[nH]1 [Pemetrexed] (partner 0.2 µM)
Procedure, shortened: as §1

Cell Line	relative viability ([1]; first compound 0.08 µM)	relative viability ([1]; first compound 0.253 µM)	relative viability ([1]; first compound 0.8 µM)	relative viability ([1]; first compound 2.53 µM)	relative viability ([1]; first compound 8 µM)	relative viability ([2]; first compound 0.08 µM)	relative viability ([2]; first compound 0.253 µM)	relative viability ([2]; first compound 0.8 µM)	relative viability ([2]; first compound 2.53 µM)	relative viability ([2]; first compound 8 µM)	relative viability ([3]; first compound 0.08 µM)	relative viability ([3]; first compound 0.253 µM)	relative viability ([3]; first compound 0.8 µM)	relative viability ([3]; first compound 2.53 µM)	relative viability ([3]; first compound 8 µM)	relative viability ([4]; first compound 0.08 µM)	relative viability ([4]; first compound 0.253 µM)	relative viability ([4]; first compound 0.8 µM)	relative viability ([4]; first compound 2.53 µM)	relative viability ([4]; first compound 8 µM)
NCI-H2023	1.25	0.889	0.812	0.497	0.43	0.797	0.698	0.67	0.563	0.498	0.538	0.549	0.576	0.445	0.466	0.228	0.251	0.238	0.19	0.246
NCI-H650	1.02	1.12	1.07	0.706	0.755	0.772	0.647	0.677	0.561	0.645	0.521	0.487	0.447	0.461	0.447	0.933	1.14	1.15	0.979	0.831
NCI-H1651	0.76	0.762	0.77	0.599	0.796	0.884	0.844	0.873	0.835	0.822	0.414	0.459	0.443	0.284	0.386	0.565	0.564	0.639	0.558	0.668
NCI-H1437	0.839	0.772	0.978	0.775	0.835	0.898	0.949	0.992	0.813	0.959	0.393	0.402	0.392	0.336	0.416	0.297	0.294	0.287	0.283	0.285
HOP-62	1.03	1.11	1.14	1.05	0.946	0.927	0.907	1.09	1.06	0.882	0.618	0.703	0.65	0.571	0.579	0.264	0.248	0.438	0.344	0.322
NCI-H2347	1.01	0.899	0.975	0.953	0.963	0.734	0.727	0.73	0.703	0.58	0.347	0.326	0.293	0.252	0.2	0.405	0.461	0.418	0.42	0.43
NCI-H2170	0.278	0.277	0.286	0.273	0.271	1.2	1.15	0.934	1.11	0.922	0.554	0.487	0.292	0.575	0.519	0.245	0.281	0.29	0.264	0.271
EPLC-272H	0.927	0.996	0.845	0.955	0.989	0.892	0.899	0.696	0.87	0.8	0.419	0.334	0.304	0.382	0.357	0.355	0.345	0.284	0.314	0.398
NCI-H2405	1.06	1.09	1.15	0.999	0.963	0.808	0.822	0.827	0.775	0.758	0.206	0.222	0.237	0.204	0.183	1.2	1.07	0.936	1.08	0.828
SW 1573	1.1	1.24	1.13	1.08	0.955	0.842	0.854	0.672	0.866	0.794	0.538	0.794	0.589	0.436	0.383	0.823	0.83	0.987	0.792	0.768
NCI-H358	0.46	0.347	0.468	0.425	0.413	0.506	0.501	0.513	0.484	0.443	0.171	0.158	0.138	0.163	0.183	0.176	0.173	0.165	0.164	0.175
LCLC-97TM1	1.14	1.02	1.13	1.37	0.574	0.37	0.517	0.453	0.331	0.445	0.816	0.922	0.785	0.786	0.821	0.167	0.198	0.187	0.183	0.177
HCC-366	0.949	0.939	1.07	1.01	1.08	0.484	0.503	0.513	0.47	0.558	0.71	0.8	0.592	0.502	0.564	0.141	0.17	0.265	0.164	0.25
